Experimental data taken from patent US20250277208A1, “Method of Peptide Library Construction and Peptides Thereof” (Alcamena Stem Cell Therapeutics, LLC, priority 2024, published 2025).
Where “and” joins values, the source holds several entries; their conditions need not be identical. Equal entries are not always repeated. Where two headings read alike, the source gives them in different places. One block for each molecule: values may come before it. Square brackets hold non-standard residues; d marks the D form. Ends that are not written are not given here. Phe(4-F) = N[C@@H](Cc1ccc(F)cc1)C(=O)O; Gla = N[C@@H](CC(C(=O)O)C(=O)O)C(=O)O; Cha = N[C@@H](CC1CCCCC1)C(=O)O

What was measured:
[1] = target: T1, IL-6 (Homo sapiens, UniProt P05231); experiment: Biacore surface plasmon resonance binding of peptides to immobilised IL-6; details: for affinity compared with the parent sequence, in words: termini protected
T1 construct: purchased R&D Systems BT7270B
Source text: Two DNA fragments were amplified from a synthetic fragment of the IL-6R. The 5′ fragment was amplified with forward primer and a mixture of 432 reverse primers, each containing an overhang of 6 codons. The 3′ fragment was amplified with a mixture of 432 forward primers, also containing overhangs of six degenerate codons and the reverse primer. Either the first or the second nucleotide of each codon was replaced with a degenerate base. Following PCR amplification, DNA fragments were phosphorylated and ligated leading to various sequence rearrangements shown at the bottom of the FIG. 3. Four hundred thirty-two forward and reverse oligos with an overhang of 6 codons from the IL-6R binding domain were used for PCR. A degenerate nucleotide was inserted at the first or second position of each codon. When ligated, these sequences generated a library of 1×10^13 different DNA sequences. The library of DNA sequences was taken through eight rounds of mRNA Display generating a peptide library. Eighteen of the most abundant peptides in the peptide library were synthesized in a linear form and tested for binding to IL-6 using Biacore. One of the peptides (#9) (“Peptide 9”) from the peptide library, with the sequence of […] The twelve non-terminal residues represent the PepFusion library-derived DNA sequences, while N-terminal serine and C-terminal glycine come from the flanking linkers and were kept as a precaution, in case linker sequences contributed to peptide interaction with its target.
Binding reactions were performed in HBS-P/2% DMSO buffer (10 mM Hepes, pH 7.4, 150 mM NaCl, 0.05% P-20, 2% DMSO), which was filtered through […] filters and degassed before use. Biotinylated recombinant human IL-6 (IL-6-Biotin) was bound to the surface of a Biacore SA sensor chip of a Biacore T200 surface plasmon resonance unit as follows. The streptavidin surface of the chip (flow cells 1 and 2) was activated by injecting 20 μl of 1 M NaCl/50 mM NaOH at 20 μl/min, in 3 pulses. Biotinylated Recombinant Human IL6 was diluted with HBS-P buffer and an aliquot of 100 μl (2 micrograms/ml) was injected into flow cell 2 at 5 microliters/min to yield a signal of 1400 response units (RU) (10 microliters were injected). Any remaining activated residues on the streptavidin surface of flow cells 1 and 2 were blocked with 30 microliters 500 nM free Biotin.
(§1) Affinity scouting assay was performed at a flow rate of 30 microliters/min at 25° C. The analyte (60 microliter aliquots of peptides, at concentrations of 20 μM in HBS-P/2% DMSO buffer) was injected into flow cells 1 and 2 and the association reaction was recorded. The surface was then washed with HBS-P/2% DMSO for 3 min and the dissociation of the analyte from the bound IL6 was followed over time. The surfaces of the flow cells were regenerated with 30 microliters of 10 mM NaOH, followed 50 microliters of HBS-P/2% DMSO buffer.
as §1, with “Kinetics analysis of binding was performed” for “Affinity scouting assay was performed”, “concentrations of 0, 1.25 μM, 2.5 μM, 5 μM, 10 μM and 20 μM” for “concentrations of 20 μM”, “DMSO buffer. Sensorgrams were analyzed using BIAeveluation 3.2.1 software (Cytiva). Values from the reference flow cell were subtracted to obtain the values for specific binding. Data were globally fitted to the Langmuir model for a 1:1 mass transfer binding.” for “DMSO buffer.”

[2] = target: T2, Biotinylated recombinant human IL-6 (human, UniProt P05231 30-212, biotinylated (sites not given)); experiment: SPR (Biacore), IL-6 on chip
T2 construct: In the cell bioassay IL-6 (0.5 nM) was used in solution; also called Interleukin-6; IL-6-Biotin

[3] = Table 1, N and C termini not protected, cells printed in μM, read-out: KD (nM) P < 0.05
[4] = Table 2, N terminus acetylated, C terminus amidated, cells printed in μM, read-out: KD (nM) P < 0.05
[5] = termini protected (acetylated, amidated), read-out: KD

Kd [1, 4]: > 10 µM
Molecule: Ac-ATIRDLLRMMKHIVG-NH2 [Peptide 95, ATIRDLLRMMKHIVG]

Kd [1, 5]: 0.563 µM
Molecule: Ac-ATIRDLIRMMKVIVG-NH2 [Peptide 83, ATIRDLIRMMKVIVG]

Kd [1, 4]: > 10 µM
Molecule: Ac-FSFRDLLRRMKHIVG-NH2 [Peptide 91, FSFRDLLRRMKHIVG]

affinity compared with the parent sequence, in words ([1]; Table 2): not improved
Molecule: Ac-FAFRDLLRMMCHIVG-NH2 [Peptide 75, FAFRDLLRMMCHIVG]

Kd [1, 4]: > 10 µM
Molecule: Ac-FSVRDLLRRMKHIVG-NH2 [Peptide 85, FSVRDLLRRMKHIVG]

Kd [1, 4]: > 10 µM
Molecule: Ac-FSFRDLLRMMKHIVG-NH2 [Peptide 92, FSFRDLLRMMKHIVG]

Kd [1, 4]: > 10 µM
Molecule: Ac-SFRDLLRMMKHIVG-NH2 [Peptide 89, SFRDLLRMMKHIVG]

Kd [1, 4]: > 10 µM
Molecule: Ac-FSVRDLLRMMKHIVG-NH2 [Peptide 86, FSVRDLLRMMKHIVG]

Kd [1, 5]: 0.027 µM
Molecule: Ac-FSFRDLLRRMCHIVG-NH2 [Peptide 72, FSFRDLLRRMCHIVG]

Kd [1, 4]: > 10 µM
Molecule: Ac-TIRDLLRRMKHIVG-NH2 [Peptide 97, TIRDLLRRMKHIVG]

Kd [1, 5]: ≤ 1.5 µM
Molecule: Ac-FAFRDLIRMMKVIVG-NH2 [Peptide 76, FAFRDLIRMMKVIVG]

Kd [1, 5]: ≤ 1.5 µM and 0.405 µM
Molecule: Ac-FAFRDLIRMMKHIVG-NH2 [Peptide 77, FAFRDLIRMMKHIVG]

Kd [1, 5]: 0.247 µM
Molecule: Ac-FAFRDLIRMMKVCVG-NH2 [Peptide 79, FAFRDLIRMMKVCVG]

Kd [1, 4]: > 10 µM
Molecule: Ac-SFRDLLRRMKHIVG-NH2 [Peptide 88, SFRDLLRRMKHIVG]

Kd [1, 5]: 0.108 µM
Molecule: Ac-ATIRDLIRMMKVCVG-NH2 [Peptide 82, ATIRDLIRMMKVCVG]

Kd [1, 4]: > 10 µM
Molecule: Ac-ATIRDLIRMMKHIVG-NH2 [Peptide 96, ATIRDLIRMMKHIVG]

Kd [1, 5]: ≤ 1.5 µM
Molecule: Ac-FAFRDLIRMMCVIVG-NH2 [Peptide 78, FAFRDLIRMMCVIVG]

Kd [1, 4]: > 10 µM
Molecule: Ac-TIRDLIRMMKHIVG-NH2 [Peptide 99, TIRDLIRMMKHIVG]

binding to IL-6, in words [1]: did not bind
Molecule: INTLLSEINSILLDIISLL [RA07, published control peptide described in Kobayashi et al., Mol Biotechnol 2011, reference compound]

Kd [1, 4]: > 10 µM
Molecule: Ac-TIRDLLRMMKHIVG-NH2 [Peptide 98, TIRDLLRMMKHIVG]

Kd [1, 4]: > 10 µM
Molecule: Ac-FSFRDLIRMMCHIVG-NH2 [Peptide 74, FSFRDLIRMMCHIVG]

binding to IL-6, in words [1]: no binding
Molecule: SVKDLQHGLRHVVG [Peptide C1, control peptide homologous to peptide 9, devoid of any mutations; two unmutated fragments of IL-6R, reference compound]

affinity compared with the parent sequence, in words ([1]; Table 2): not improved
Molecule: Ac-FSFRDLLRMMCHIVG-NH2 [Peptide 80, FSFRDLLRMMCHIVG]

Kd [1, 4]: > 10 µM
Molecule: Ac-ATIRDLLRRMKHIVG-NH2 [Peptide 94, ATIRDLLRRMKHIVG]

Second part, the molecule before the results:

Molecule: Ac-SVRDLLRMMCHIVG-NH2 [Peptide 69, SVRDLLRMMCHIVG]
affinity compared with the parent sequence, in words ([1]; Table 2): no significant effect

Molecule: SNYTLLRRMCHIVG [Peptide 36, SNYTLLRRMCHIVG]
Kd [1, 3]: > 10 µM

Molecule: Ac-TIRDLLRRMCHIVG-NH2 [Peptide 71, TIRDLLRRMCHIVG]
affinity compared with the parent sequence, in words ([1]; Table 2): greatly improved

Molecule: Ac-ATIRDLIRMMCHIVG-NH2 [Peptide 51, ATIRDLIRMMCHIVG]
Kd [1, 5]: ~0.1 µM and 0.128 µM

Molecule: LGHRDLLRRMCHIVG [Peptide 29, LGHRDLLRRMCHIVG]
Kd [1, 3]: > 10 µM

Molecule: NERRDLLRRMCHIVG [Peptide 41, NERRDLLRRMCHIVG]
binding affinity compared with parent peptide 9, in words ([1]; Table 1, termini not protected): reduced binding affinity

Molecule: LEIRDLLRRMCHIVG [Peptide 26, LEIRDLLRRMCHIVG]
Kd [1, 3]: > 10 µM

Molecule: SVRDLPRIMCHIVG [Peptide 31, SVRDLPRIMCHIVG]
Kd [1, 3]: > 10 µM

Molecule: SVSIHLRRMCHIVG [Peptide 32, SVSIHLRRMCHIVG]
Kd [1, 3]: > 10 µM

Molecule: H-ETIRDLLRRMCHIVG-OH [Peptide 24, ETIRDLLRRMCHIVG]
binding affinity compared with parent peptide 9, in words ([1]; Table 1, termini not protected): improved binding affinity

Molecule: SVRDLLNRICHIVG [Peptide 21, SVRDLLNRICHIVG]
Kd [1, 3]: > 10 µM

Molecule: FD(Cha)DIHLL(4F)LPTEWEK(Cla)KNEE (FD[Cha]DIHLL[Phe(4-F)]LPTEWEK[Gla]KNEE) [PN-2519, reference compound]
binding to IL-6, in words [1]: no activity

Molecule: GNSRDLLRRMCHIVG [Peptide 42, GNSRDLLRRMCHIVG]
Kd ([1]; KD (nM) P < 0.05, Table 1, N and C termini not protected, cells printed in μM): > 10 µM

Molecule: SVRDNFHRMCHIVG [Peptide 30, SVRDNFHRMCHIVG]
Kd [1, 3]: > 10 µM

Molecule: SVRDLQKOMCHIVG (SVRDLQKQMCHIVG; not fully specified) [Peptide 44]
binding affinity compared with parent peptide 9, in words ([1]; Table 1, termini not protected): completely lost binding affinity

Molecule: CVYRDLLRRMCHIVG [Peptide 35]
binding affinity compared with parent peptide 9, in words ([1]; Table 1, termini not protected): completely lost binding affinity

Molecule: Ac-SVRDLLRRMKHIVG-NH2 [Peptide 65, SVRDLLRRMKHIVG]
affinity compared with the parent sequence, in words ([1]; Table 2): slightly better affinity

Molecule: H-ATIRDLLRRMCHIVG-OH [Peptide 38, ATIRDLLRRMCHIVG]
binding affinity compared with parent peptide 9, in words ([1]; Table 1, termini not protected): improved binding affinity

Molecule: H-SVRDLLRRMCHIVG-OH [Peptide 9, SVRDLLRRMCHIVG]
Kd ([1]; termini not protected, read-out: KD): 2.5 µM

Molecule: SVRDLLRRMCHCVG [Peptide 67]
binding to IL-6, in words [1]: no binding

Molecule: H-FAFRDLLRRMCHIVG-OH [Peptide 45, FAFRDLLRRMCHIVG]
binding affinity compared with parent peptide 9, in words ([1]; Table 1, termini not protected): improved binding affinity

Molecule: Ac-FAFRDLIRMMCHIVG-NH2 [Peptide 58, FAFRDLIRMMCHIVG]
Kd [1, 5]: ~0.1 µM and 0.071 µM

Molecule: SVRDLLHGRCHIVG [Peptide 40, SVRDLLHGRCHIVG]
Kd [1, 3]: > 10 µM

Molecule: SVRIYLRRMCHIVG [Peptide 20, SVRIYLRRMCHIVG]
Kd [1, 3]: > 10 µM

Molecule: H-SVRDLIRMMCHIVG-OH [Peptide 33, SVRDLIRMMCHIVG]
binding affinity compared with parent peptide 9, in words ([1]; Table 1, termini not protected): improved binding affinity

Molecule: SVRDLLRMFCHIVG [Peptide 23, SVRDLLRMFCHIVG]
Kd [1, 3]: > 10 µM

Molecule: SVRDLHKMMCHIVG [Peptide 25, SVRDLHKMMCHIVG]
Kd [1, 3]: > 10 µM

Molecule: SVRDPHNRMCHIVG [Peptide 22, SVRDPHNRMCHIVG]
Kd [1, 3]: > 10 µM

Molecule: SVHIHLRRMCHIVG [Peptide 34, SVHIHLRRMCHIVG]
Kd [1, 3]: > 10 µM

Molecule: FD(hL)DIHLLELPTEWEKDKNEE [PN-1974(2), peptide PN-1974 with termini protected by acetylation and amidation, reference compound]
binding to IL-6, in words [1]: eliminated its activity

Molecule: H-SVRDLLRRMKVCVG-OH [Peptide 27, SVRDLLRRMKVCVG]
binding affinity compared with parent peptide 9, in words ([1]; Table 1, termini not protected): improved binding affinity

Molecule: SVRDLLRRMCHPRLG [Peptide 46, SVRDLLRRMCHPRLG]
Kd [1, 3]: > 10 µM

Molecule: Ac-SVRDLLRRMCVIVG-NH2 [Peptide 66, SVRDLLRRMCVIVG]
affinity compared with the parent sequence, in words ([1]; Table 2): slightly better affinity

Molecule: Ac-SVRDLIRRMCHIVG-NH2 [Peptide 68, SVRDLIRRMCHIVG]
affinity compared with the parent sequence, in words ([1]; Table 2): lowered affinity

B1: Peptide 55 (peptide)
peptide: Ac-TVRDLLRRMCHIVG-NH2
Kd [2]: 224 nM

B2: Peptide 56 (peptide)
peptide: Ac-SIRDLLRRMCHIVG-NH2
Kd [2]: 305 nM

B3: Peptide 63 (peptide)
peptide: Ac-SFRDLLRRMCHIVG-NH2
Kd [2]: 162 nM

B4: Peptide 62 (peptide)
peptide: Ac-AVRDLLRRMCHIVG-NH2
Kd [2]: 519 nM
